In US8124629B2, “Naphthylacetic acids” (Hoffmann-La Roche Inc., priority 2008, dated 2012):

molecular target: T1, human CRTH2 (Homo sapiens, UniProt Q9Y5Y4); assay: Human CRTH2 Receptor Binding Assay (whole cell, [3H]ramatroban); design: expressed in transfected cells; host or cells: CHO-K1; conditions: CHO-K1 cells expressing human CRTH2 and G-alpha16; 20 nM [3H]ramatroban; 1 hour, room temperature
T1 sequence (Q9Y5Y4 1-395): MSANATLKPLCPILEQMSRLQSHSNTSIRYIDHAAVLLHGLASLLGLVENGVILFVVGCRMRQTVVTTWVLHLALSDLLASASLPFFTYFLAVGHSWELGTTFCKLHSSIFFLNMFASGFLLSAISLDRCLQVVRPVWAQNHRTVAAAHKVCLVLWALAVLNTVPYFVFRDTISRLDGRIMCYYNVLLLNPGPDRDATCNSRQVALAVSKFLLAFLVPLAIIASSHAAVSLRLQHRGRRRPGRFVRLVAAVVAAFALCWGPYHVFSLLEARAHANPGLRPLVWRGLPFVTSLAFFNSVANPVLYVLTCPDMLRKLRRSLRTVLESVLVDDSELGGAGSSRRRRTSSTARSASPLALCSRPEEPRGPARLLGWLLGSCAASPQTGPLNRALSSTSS
Description: A whole cell receptor binding assay using [^3H]ramatroban as the competing radioactive ligand was employed to evaluate the compound binding activity to human CRTH2. The radioactive ligand [^3H]ramatroban was synthesized according to Sugimoto et. al. (Eur. J. Pharmacol. 524, 30-37, 2005) to a specific activity of 42 Ci/mmol.
A cell line stably expressing human CRTH2 was established by transfecting CHO-K1 cells with two mammalian expression vectors that harbored human CRTH2 and G-alpha16 cDNAs, respectively, using FuGene® 6 transfection reagent (from Roche). Stable clones expressing CRTH2 were selected by staining each clone with BM16 (BD Pharmingen™ from BD Biosciences, a division of Becton, Dickinson and Company), which is a rat monoclonal antibody to human CRTH2. The cells were maintained as monolayer cultures in Ham's F-12 medium containing 10% fetal bovine serum, 100 units/mL penicillin, 100 μg/mL streptomycin, 2 mM glutamine, 0.5 mg/mL G418 (geneticin) for CRTH2, and 0.2 mg/mL hygromycin-B (for G-alpha 16). For whole cell receptor binding assay, the monolayer cells were rinsed once with PBS (phosphate buffered saline), dissociated using ethylenediaminetetraacetate (Versene™ EDTA from Lonza Inc.), and suspended in PBS containing 10 mM MgCl2 and 0.06% BSA (bovine serum albumin) at 1.5×10^6 cells/mL.
The binding reactions (0.2 mL) were performed in 96-well plates at room temperature in PBS containing 1.5×10^5 cells, 10 mM MgCl2, 0.06% BSA, 20 nM [^3H]ramatroban, and test compound at various concentrations. After 1 hour of binding reactions, the cells were harvested on GF™/B filter microplates (microtiter plates with embedded glass fiber from Perkin Elmer, Inc.) and washed 5 times with PBS using a Filtermate™ Harvester (a cell harvester that harvests and washes cells from microplates from PerkinElmer, Inc.). The radioactivities bound to the cells were determined using a microplate scintillation counter (TopCount® NXT, from PerkinElmer, Inc.) after adding 50 μL of Microscint™ 20 scintillation fluid (from PerkinElmer, Inc.) to each well of the filter plates. The radioactivity from non-specific binding was determined by replacing compound with 10 μM of 15(R)-15-methyl PGD2 (from Cayman Chemical Company) in the reaction mixtures. The radioactivity bound to the cells in the absence of compound (total binding) was determined by replacing compound with 0.25% of DMSO (dimethyl sulfoxide) in the reaction mixture. Specific binding data were obtained by subtracting the radioactivity of non-specific binding from each binding data.
The IC50 value is defined as the concentration of the tested compound that is required for 50% inhibition of total specific binding. In order to calculate the IC50 value, the percent inhibition data were determined for 7 concentrations for each compound. The percent inhibition for a compound at each concentration was calculated according to the following formula, [1-(specific binding in the presence of compound)/(total specific binding)]×100. The IC50 value was then obtained by fitting the percent inhibition data to a sigmoidal dose-response (4 parameter logistic) model in the XLfit® software Excel add-in program [from ID Business Solutions Ltd., model 205, where F(x)=(A+(B−A)/(1+((C/×)^D)))].

| IC50 [nM] | Structure (SMILES) |
| --- | --- |
| 17.8 | CN(C)S(=O)(=O)c1ccc(C(=O)c2cc(CC(=O)O)cc3ccccc23)cc1 [Example 1-1, [4-(4-Dimethylsulfamoyl-benzoyl)-naphthalen-2-yl]-acetic acid] |
| 11.2 | CCS(=O)(=O)c1ccc(C(=O)c2cc(CC(=O)O)cc3ccc(F)cc23)c(Cl)c1 [Example 1-4, [4-(2-Chloro-4-ethanesulfonyl-benzoyl)-6-fluoro-naphthalen-2-yl]-acetic acid] |
| 6.2 | O=C(O)Cc1cc(C(=O)c2ccc(S(=O)(=O)c3cccc(Cl)c3)cc2)c2cc(F)ccc2c1 [Example 1-5, {4-[4-(3-Chloro-benzenesulfonyl)-benzoyl]-6-fluoro-naphthalen-2-yl}-acetic acid] |
| 4.3 | CS(=O)(=O)c1ccc(C(=O)c2cc(CC(=O)O)cc3ccc(F)cc23)cc1 [Example 2-1, [6-Fluoro-4-(4-methanesulfonyl-benzoyl)-naphthalen-2-yl]-acetic acid] |
| 26.4 | COc1ccc2cc(CC(=O)O)cc(C(=O)c3ccc(S(C)(=O)=O)cc3)c2c1 [Example 2-2, [4-(4-Methanesulfonyl-benzoyl)-6-methoxy-naphthalen-2-yl]-acetic acid] |
| 17 | CS(=O)(=O)c1ccc(C(=O)c2cc(CC(=O)O)cc3ccccc23)cc1 [Example 2-3, [4-(4-Methanesulfonyl-benzoyl)-naphthalen-2-yl]-acetic acid] |
| 40.6 | CS(=O)(=O)c1ccc(C(=O)c2cc(CC(=O)O)cc3cc(F)ccc23)cc1 [Example 2-4, [7-Fluoro-4-(4-methanesulfonyl-benzoyl)-naphthalen-2-yl]-acetic acid] |
| 15.1 | Cc1cc(S(C)(=O)=O)ccc1C(=O)c1cc(CC(=O)O)cc2ccc(F)cc12 [Example 2-5, [6-Fluoro-4-(4-methanesulfonyl-2-methyl-benzoyl)-naphthalen-2-yl]-acetic acid] |
| 15.5 | CS(=O)(=O)c1ccc(C(=O)c2cc(CC(=O)O)cc3cc(F)c(F)cc23)cc1 [Example 2-6, [6,7-Difluoro-4-(4-methanesulfonyl-benzoyl)-naphthalen-2-yl]-acetic acid] |
| 8.5 | CS(=O)(=O)c1ccc(C(=O)c2cc(CC(=O)O)cc3ccc(F)cc23)c(Cl)c1 [Example 2-8, [4-(2-chloro-4-methanesulfonyl-benzoyl)-6-fluoro-naphthalen-2-yl]-acetic acid] |
| 44.8 | CS(=O)(=O)c1cccc(C(=O)c2cc(CC(=O)O)cc3ccc(F)cc23)c1 [Example 2-10, [6-Fluoro-4-(3-methanesulfonyl-benzoyl)-naphthalen-2-yl]-acetic acid] |
| 3 | CCS(=O)(=O)c1ccc(C(=O)c2cc(CC(=O)O)cc3ccc(F)cc23)cc1 [Example 2-13, [4-(4-Ethanesulfonyl-benzoyl)-6-fluoro-naphthalen-2-yl]-acetic acid] |
| 2.7 | CN(C)S(=O)(=O)c1ccc(C(=O)c2cc(CC(=O)O)cc3ccc(F)cc23)cc1 [Example 2-14, [4-(4-Dimethylsulfamoyl-benzoyl)-6-fluoro-naphthalen-2-yl]-acetic acid] |
| 3.3 | CNS(=O)(=O)c1ccc(C(=O)c2cc(CC(=O)O)cc3ccc(F)cc23)cc1 [Example 2-15, [6-Fluoro-4-(4-methylsulfamoyl-benzoyl)-naphthalen-2-yl]-acetic acid] |
| 3.3 | O=C(O)Cc1cc(C(=O)c2ccc(S(=O)(=O)N3CCOCC3)cc2)c2cc(F)ccc2c1 [Example 2-16, {6-Fluoro-4-[4-(morpholine-4-sulfonyl)-benzoyl]-naphthalen-2-yl}-acetic acid] |
| 14.5 | CS(=O)(=O)c1ccc(C(=O)c2cc(CC(=O)O)cc3ccc(F)cc23)c(F)c1 [Example 2-17, [6-Fluoro-4-(2-fluoro-4-methanesulfonyl-benzoyl)-naphthalen-2-yl]-acetic acid] |
| 4.2 | CS(=O)(=O)c1ccc(C(=O)c2cc(CC(=O)O)cc3ccc(F)cc23)cc1C(F)(F)F [Example 2-18, [6-Fluoro-4-(4-methanesulfonyl-3-trifluoromethyl-benzoyl)-naphthalen-2-yl]-acetic acid] |
| 2.3 | CCc1cc(C(=O)c2cc(CC(=O)O)cc3ccc(F)cc23)ccc1S(C)(=O)=O [Example 2-19, [4-(3-Ethyl-4-methanesulfonyl-benzoyl)-6-fluoro-naphthalen-2-yl]-acetic acid] |
| 17.9 | CCS(=O)(=O)c1ccc(C(=O)c2cc(CC(=O)O)cc3ccc(F)cc23)c(C)c1 [Example 2-20, [4-(4-Ethanesulfonyl-2-methyl-benzoyl)-6-fluoro-naphthalen-2-yl]-acetic acid] |
| 3.8 | O=C(O)Cc1cc(C(=O)c2ccc(S(=O)(=O)N3CCCCC3)cc2)c2cc(F)ccc2c1 [Example 2-21, {6-Fluoro-4-[4-(piperidine-1-sulfonyl)-benzoyl]-naphthalen-2-yl}-acetic acid] |
| 2.5 | CCN(CC)S(=O)(=O)c1ccc(C(=O)c2cc(CC(=O)O)cc3ccc(F)cc23)cc1 [Example 2-22, [4-(4-Diethylsulfamoyl-benzoyl)-6-fluoro-naphthalen-2-yl]-acetic acid] |
| 3.7 | Cc1cc(S(=O)(=O)N2CCOCC2)ccc1C(=O)c1cc(CC(=O)O)cc2ccc(F)cc12 [Example 2-23, {6-Fluoro-4-[2-methyl-4-(morpholine-4-sulfonyl)-benzoyl]-naphthalen-2-yl}-acetic acid] |
| 6.9 | Cc1cc(S(=O)(=O)N(C)C)ccc1C(=O)c1cc(CC(=O)O)cc2ccc(F)cc12 [Example 2-24, [4-(4-Dimethylsulfamoyl-2-methyl-benzoyl)-6-fluoro-naphthalen-2-yl]-acetic acid] |
| 8.9 | CNS(=O)(=O)c1ccc(C(=O)c2cc(CC(=O)O)cc3ccc(F)cc23)c(C)c1 [Example 2-25, [6-Fluoro-4-(2-methyl-4-methylsulfamoyl-benzoyl)-naphthalen-2-yl]-acetic acid] |
| 7 | O=C(O)Cc1cc(C(=O)c2ccc(S(=O)(=O)N3CCN(c4ccccc4F)CC3)cc2)c2cc(F)ccc2c1 [Example 2-26, (6-Fluoro-4-{4-[4-(2-fluoro-phenyl)-piperazine-1-sulfonyl]-benzoyl}-naphthalen-2-yl)-acetic acid] |
| 6.4 | CS(=O)(=O)c1ccc(C(=O)c2cc(CC(=O)O)cc3ccc(Cl)cc23)cc1 [Example 2-27, [6-Chloro-4-(4-methanesulfonyl-benzoyl)-naphthalen-2-yl]-acetic acid] |
| 21.3 | Cc1ccc2cc(CC(=O)O)cc(C(=O)c3ccc(S(C)(=O)=O)cc3)c2c1 [Example 2-28, [4-(4-Methanesulfonyl-benzoyl)-6-methyl-naphthalen-2-yl]-acetic acid] |
| 103 | CS(=O)(=O)c1cc(C(=O)c2cc(CC(=O)O)cc3ccc(F)cc23)ccc1F [Example 2-31, [6-Fluoro-4-(4-fluoro-3-methanesulfonyl-benzoyl)-naphthalen-2-yl]-acetic acid] |
| 272 | CS(=O)(=O)c1ccc(C(=O)c2cc(CC(=O)O)cc3cc(C(F)(F)F)ccc23)cc1 [Example 2-32, [4-(4-Methanesulfonyl-benzoyl)-7-trifluoromethyl-naphthalen-2-yl]-acetic acid] |
| 8.3 | CCOC(=O)N1CCN(S(=O)(=O)c2ccc(C(=O)c3cc(CC(=O)O)cc4ccc(F)cc34)cc2)CC1 [Example 4-1, 4-[4-(3-Carboxymethyl-7-fluoro-naphthalene-1-carbonyl)-benzenesulfonyl]-piperazine-1-carboxylic acid ethyl ester] |
